Where two headings read alike, the source gives them in different places.
Assays:
[1] = molecular target: T1, HsrA (Helicobacter pylori (strain of the recombinant protein not stated)) (UniProt O25684); experiment: EMSA; conditions: EMSA binding buffer (Beyotime GS005, composition and pH not stated), 25 uL, 4 uM HsrA, 50 ng each DNA, 25 C 30 min; 5% native PAGE, 0.5x TBE
T1 sequence: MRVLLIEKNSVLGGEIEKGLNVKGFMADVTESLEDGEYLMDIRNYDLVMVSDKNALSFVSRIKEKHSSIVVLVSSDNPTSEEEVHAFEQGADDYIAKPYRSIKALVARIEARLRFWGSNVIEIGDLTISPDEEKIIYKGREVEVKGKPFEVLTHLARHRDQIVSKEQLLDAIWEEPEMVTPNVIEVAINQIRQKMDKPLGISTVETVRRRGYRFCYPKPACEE

HsrA = molecular target: T2, HsrA (Helicobacter pylori, UniProt O25684); experiment: SPR (Biacore T200, […] model); also EMSA inhibition of HsrA-DNA binding
T2 construct: gene HP_1043
T2 sequence (O25684 entry or part of it): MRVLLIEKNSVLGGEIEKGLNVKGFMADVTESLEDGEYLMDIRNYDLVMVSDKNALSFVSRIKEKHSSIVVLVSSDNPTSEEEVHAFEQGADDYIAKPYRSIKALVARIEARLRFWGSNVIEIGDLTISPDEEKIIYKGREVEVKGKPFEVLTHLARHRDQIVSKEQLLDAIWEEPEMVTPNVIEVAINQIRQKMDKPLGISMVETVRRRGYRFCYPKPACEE

**Q.** “GCCAAAACGCCTAAAGCCATGATAACCTTTTTCATCGTTTGTCTCCTCTACTTATCAAAATGATCTTAAAATGATACAATTACAAGTTTAAGTTTTGCTTAAAAATGAAGTGAAAATGAGAGAAATAAATATGATTTTATACATTCATATCCCCTTTTGTGAAAATAAATGCGGTTATTGCGCTTTCAA (double strand) [hp1227 promoter probe]” was tested. Which binding [1] did it give?
**A.** binds

**Q.** How did the Kd (HsrA) turn out when c1cc2c(cc1O[C@H]1OC[C@H]3[C@@H]1CO[C@@H]3c1ccc3c(c1)OCO3)OCO2 [compound 3, Sesamolin] was run?
**A.** 17.1 nM

**Q.** With c1c2c(cc3c1OCO3)-c1cc3ccc4c(c3c[n+]1CC2)OCO4 [compound 6, Coptisine] as the compound, how does the Kd (HsrA; read-out: Kd) read?
**A.** 400 nM

Source: PMC12658632, “Discovery of Sesamolin as a Potential Anti-Helicobacter pylori Agent by Virtual Screening against the Essential Response Regulator HsrA with In Vitro Evaluation” (ACS Omega, 2025)
